Measured values published in PubChem BioAssay (NCI).
Where “and” joins values, the source holds several entries; their conditions need not be identical. Identical values can stand only once.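 Compound exposure: 48 hours, 5 concentrations, 96-well plates. Abbreviation: GI50, concentration required for 50% inhibition of growth. TGI denotes the concentration required for complete inhibition of growth.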

What was measured:
Experiment in all cases: DTP human tumour cell line panel, 48 h
[1] = test system: SF-539 CNS
[2] = test system: CAKI-1 renal
[3] = test system: PC-3 prostate
[4] = test system: K-562 leukemia
[5] = test system: OVCAR-4 ovarian
[6] = test system: HCT-116 colon
[7] = test system: TK-10 renal
[8] = test system: UO-31 renal
[9] = test system: HT29 colon
[10] = test system: EKVX NSCLC

COc1ccc(-c2cn[nH]c2-c2cc(OC)c(OC)c(OC)c2)cc1N
GI50 [1]: < 0.01 µM
TGI [1]: > 100 µM
GI50 [2]: < 0.01 µM and 0.0324 µM
TGI [2]: > 100 µM
GI50 [3]: < 0.01 µM and 0.0339 µM
TGI [3]: > 100 µM
GI50 [4]: < 0.01 µM
TGI [4]: > 100 µM
GI50 [5]: 0.013 µM and 0.0877 µM
TGI [5]: > 100 µM
GI50 [6]: < 0.01 µM and 0.0344 µM
TGI [6]: > 100 µM
TGI [7]: > 100 µM
GI50 [8]: 0.191 µM and 0.118 µM
TGI [8]: > 100 µM
GI50 [9]: < 0.01 µM and 0.0339 µM
TGI [9]: > 100 µM
GI50 [10]: < 0.01 µM and 0.0673 µM
TGI [10]: > 100 µM

O=C1CCC2(C=C(Br)C(=O)C(Br)=C2)O1
GI50 [1]: 2.63 µM
TGI [1]: 7.14 µM
GI50 [2]: 0.611 µM
TGI [2]: 1.91 µM
GI50 [3]: 15.8 µM
TGI [3]: 31.3 µM
GI50 [4]: 2.81 µM
TGI [4]: 21.7 µM
GI50 [5]: 2.08 µM
TGI [5]: 4.34 µM
GI50 [6]: 1.69 µM
TGI [6]: 3.12 µM
GI50 [7]: 2.01 µM
TGI [7]: 4.14 µM
GI50 [8]: 5.54 µM
TGI [8]: 11.4 µM
GI50 [9]: 2.89 µM
TGI [9]: 7.82 µM
GI50 [10]: 5.29 µM
TGI [10]: 12.6 µM

O=[N+]([O-])/C=C/c1c[nH]c2ccccc12
GI50 [1]: 15.4 µM
TGI [1]: 35.6 µM
GI50 [2]: 16.8 µM
TGI [2]: 32.7 µM
GI50 [3]: 24.2 µM
TGI [3]: 64.8 µM
GI50 [4]: 21.7 µM
TGI [4]: 61 µM
GI50 [5]: 12.4 µM
TGI [5]: 26.8 µM
GI50 [6]: 3.32 µM
TGI [6]: 11.3 µM
GI50 [7]: 16.8 µM
TGI [7]: 30.7 µM
GI50 [8]: 13.4 µM
TGI [8]: 27.2 µM
GI50 [9]: 19.5 µM
TGI [9]: 38.8 µM
GI50 [10]: 19.3 µM
TGI [10]: 45.1 µM

O=C(C(Br)Br)C(Br)C(Br)c1ccccc1 (stereo not drawn)
GI50 [1]: 2.43 µM
TGI [1]: 7.84 µM
GI50 [2]: 1.78 µM
TGI [2]: 3.37 µM
GI50 [3]: 3.67 µM
TGI [3]: 15.2 µM
GI50 [4]: 1.89 µM
TGI [4]: 5.37 µM
GI50 [6]: 1.83 µM
TGI [6]: 3.42 µM
GI50 [7]: 2.47 µM
TGI [7]: 4.78 µM
GI50 [8]: 2.5 µM
TGI [8]: 7.86 µM
GI50 [9]: 2.5 µM
TGI [9]: 5.39 µM
GI50 [10]: 14.5 µM
TGI [10]: 43.9 µM

O=C(Oc1ccc(CCl)cc1)c1ccccc1
GI50 [1]: 0.152 µM
TGI [1]: 0.286 µM
GI50 [2]: 0.16 µM
TGI [2]: 0.303 µM
GI50 [3]: 0.15 µM
TGI [3]: 0.332 µM
GI50 [5]: 0.159 µM
TGI [5]: 0.313 µM
GI50 [6]: 0.138 µM
TGI [6]: 0.426 µM
GI50 [7]: 0.174 µM
TGI [7]: 0.33 µM
GI50 [8]: 0.173 µM
TGI [8]: 0.319 µM
GI50 [9]: 0.149 µM
TGI [9]: 0.289 µM
GI50 [10]: 0.531 µM
TGI [10]: 1.79 µM

COc1cc2c(/C=C3/C(=O)Nc4ccccc43)c(Cl)n(Cc3ccccc3[N+](=O)[O-])c2cc1C
GI50 [1]: 14.3 µM
TGI [1]: 40.4 µM
GI50 [2]: 6.39 µM
TGI [2]: 23.3 µM
GI50 [3]: 5.08 µM
TGI [3]: 25.6 µM
GI50 [5]: 4.18 µM
TGI [5]: 22.2 µM
GI50 [6]: 2.71 µM
TGI [6]: 18.6 µM
GI50 [7]: 12.4 µM
TGI [7]: 34.1 µM
GI50 [8]: 6.29 µM
TGI [8]: 25.1 µM
GI50 [9]: 1.93 µM
TGI [9]: 24.4 µM
GI50 [10]: 5.66 µM
TGI [10]: 29.5 µM
